Experiments:
[1] = test system: Smn transcripts in spinal cord, skeletal muscle, liver; assay: Smn transcripts in mouse tissues by ddPCR; format: in vivo
Description: At P1, pups were counted.

[2] = Plasma drug levels after P4-P16 dosing; conditions: FVB/N background, mouse, ip
Description: Personnel conducting studies followed the approved standard operating procedures for daily monitoring, dosing, weaning and euthanasia according to the approved study protocol. […] Line maintenance was maintained by interbreeding of the congenic line and every 4th generation mice were outbred to wild type FBV/N mice (jax # 001800) to reduce the possibility of new mutations within the line. Smn 2B mice were internally developed and maintained in the DiDonato laboratory. To generate the SMA mice used in this study an intercross between Smn 2B/2B and Smn +/- mice was performed. This generated litters in which 50% of the offspring were control (2B/+) and 50% SMA (2B/-). The day of birth was considered to be P0. If pups were born after 3pm, the following day was considered P0. At P1, pups were counted. If greater than 10 pups to a cage, pups were randomly chosen and moved to another cage to increase litter size, culled to reduce litter size or genotyped at P1 and culled at P2 to reduce litter size to 10 or fewer pups. Thereafter, no culling of pups was performed for drug studies. Individual mice were genotyped from DNA obtained from tail snips by polymerase chain reaction (PCR). All mice were weaned at P21 and separated into male and female cages. […] For the PK single dose studies a single ip injection was used. […] Body weights were recorded daily in the AM and dosing volume was adjusted accordingly. […]

[3] = cited from earlier work
[4] = test system: N2a cells miRNA; assay: miRNA RNA-Seq of N2a cells; format: cell-based, mouse; conditions: approximately 700 detectable
Protocol: Cells were then pelleted and lysed in RLT and the RNA was purified according to the protocol for the Qiagen miRNeasy kit to separate and enrich small RNA and large (>200 nt) fractions separately. […] RNA quality was also validated using qPCR for DcpS responsive genes. RNA fractions were used for cDNA library preparation which was performed using Truseq mRNA v2 reagents or TailorMix miRNA reagents (RS-122-2101 Illumina, San Diego CA, USA and TM302 […], Fremont CA, USA). Libraries were run on a Nextseq 500 (Illumina) using a paired-end run (2x75bp) generating ~60 million reads per library for the mRNA-seq and 1x75bp generating ~5 million reads per library for the miRNA-seq. […] The reads were first mapped to mouse miRNAs using Bowtie without allowing for mismatches. Instead of discarding the remaining reads, we explored the possibilities of RNA editing to include potential isomiRs. These reads were mapped to miRNAs that have at most 1 base mismatch, a substitution at the 5' or 3' ends, or have 1 or 2 extra bases at either ends. […] Reads mapping to protein coding exons and other small RNAs were removed prior to mapping to miRNAs. […] We merged the counts of reads identical to a miR and those mapping to isomeric forms as they are found to have identical/very similar functions. […] The counts were normalized and analyzed using EdgeR [19] packages in R-Bioconductor.

[5] = test system: 2B/- SMA mice; assay: Survival and body weight study in 2B/- SMA mice; format: in vivo, mouse
[6] = test system: SMN transcripts in HEK-293T cells; assay: SMN transcripts by ddPCR in HEK-293T cells; conditions: HEK293T cells
[7] = test system: 2B/- SMA mice; assay: Combined 55° negative geotaxis/climb test in 2B/- SMA mice; format: in vivo, mouse
[8] = P16, Fisher's exact test P-value = 0.0708

Nc1nc(N)c2c(OCC3CCN(Cc4c(Cl)cccc4Cl)CC3)cccc2n1 [RG3039]
Smn transcripts (exons 5/6, exons 7/8, SmnΔ7) in tissues ([1]; 2B/- SMA mice, P4-P16 BID i.p.): significant increases in Smn transcripts in all tissues
SmnΔ7 transcripts in spinal cord ([1]; 2B/- mice): trended to increase
concentration at 12 h [2]: 4.24 ± 1.13 nM
physicochemical character (lipophilicity, basicity) [3]: highly lipophilic and dibasic
tissue accumulation compared to plasma [3]: significantly accumulates in all tissues compared to plasma
miR species differentially regulated by RG3039 but not PF-06802336 [4]: no miR species
effect on survival, RG3039 compared to PF-06738066 ([5]; P < 0.05 by either test): slightly greater effect on survival than PF-06738066
effect on survival of SMA mice compared to vehicle-treated SMA mice ([5]; b.i.d. i.p. P4-P20, RG3039 6 mg/kg, PF-06738066 10 mg/kg, P < 0.0001 Mantel-Cox or Gehan-Breslow-Wilcoxon): statistically significant beneficial effect on survival
SMN2 transcript increase at later time points ([6]; 8 or 24hr): much reduced or absent
increase in SMN2 transcript ([6]; after 4h of treatment): ~ 20%
simultaneous pass rate, 55° negative geotaxis and climb test ([7]; 2B/- SMA mice at P16, combined sexes): about 78%
improvement in ability to pass the combined assay over vehicle SMA mice [7, 8]: ~40%
statistical significance of improvement over vehicle SMA mice in combined test [7, 8]: showed improvement over vehicle SMA mice that did not reach statistical significance

Source: publication PMC5612656, “In vitro and in vivo effects of 2,4 diaminoquinazoline inhibitors of the decapping scavenger enzyme DcpS: Context-specific modulation of SMN transcript levels” (PLoS ONE, 2017)
